Here are results for nine compounds from patent publication US20080268439A1, “ASSAY SYSTEMS AND METHODS FOR DETECTING MOLECULES THAT INTERACT WITH SK2 CHANNELS” (priority 2007, published 2008).

In experiment [1] the target is intermediate conductance Ca^2+-activated K^+ channels (Homo sapiens, UniProt O15554). Conditions: cited from earlier work.
In experiment [2] the target is T1, hSK2A^+ expressed in mammalian tsA201 cells (Homo sapiens, UniProt Q9H2S1, DUP58-58).
T1 construct: other: 100 nM to 1 mM added online; normalized to maximum fluorescence a; Hill coefficient (nH); hSK2A^+ was 1743 nucleotides in length and encoded a polypeptide of 580 amino acids
Briefly: Membrane potential sensitive dye fluorescence (FLIPR) assay in tsA201 cells stably expressing SK2. In kind it is cell-based. Conditions: FIG. 9; for Hill coefficient (nH): inhibition of ATP/Tg induced decrease in fluorescence. On the procedure:
(§1) These cells were plated in a black optical bottom 384 well assay plate at a density of 8×10^6 cells/plate. […] After a 30-minute incubation in the voltage sensitive dye, the cell plate was transferred to a fluorescence plate reader (FLIPR384™, Molecular Devices), and ten baseline fluorescence readings were obtained.
(§2) In FIG. 8, time is represented in seconds on the X-axis, and fluorescence is represented in au on the Y-axis. ATP/Tg addition is indicated at time I, and CsCl addition is indicated at time II.
(§3) The magnitude of the ATP/Tg induced decrease in fluorescence was measured in the presence of each of a panel of known SK2 inhibitors. […]

The subject of experiment [3] is hSK2A^+ expressed in mammalian tsA201 cells. The description is as above. In kind it is cell-based, human. Conditions: 10 minutes incubation. As for the experimental part: as §1, §2, §3

T1 sequence (Q9H2S1 with tags, fused parts or gaps DUP58-58): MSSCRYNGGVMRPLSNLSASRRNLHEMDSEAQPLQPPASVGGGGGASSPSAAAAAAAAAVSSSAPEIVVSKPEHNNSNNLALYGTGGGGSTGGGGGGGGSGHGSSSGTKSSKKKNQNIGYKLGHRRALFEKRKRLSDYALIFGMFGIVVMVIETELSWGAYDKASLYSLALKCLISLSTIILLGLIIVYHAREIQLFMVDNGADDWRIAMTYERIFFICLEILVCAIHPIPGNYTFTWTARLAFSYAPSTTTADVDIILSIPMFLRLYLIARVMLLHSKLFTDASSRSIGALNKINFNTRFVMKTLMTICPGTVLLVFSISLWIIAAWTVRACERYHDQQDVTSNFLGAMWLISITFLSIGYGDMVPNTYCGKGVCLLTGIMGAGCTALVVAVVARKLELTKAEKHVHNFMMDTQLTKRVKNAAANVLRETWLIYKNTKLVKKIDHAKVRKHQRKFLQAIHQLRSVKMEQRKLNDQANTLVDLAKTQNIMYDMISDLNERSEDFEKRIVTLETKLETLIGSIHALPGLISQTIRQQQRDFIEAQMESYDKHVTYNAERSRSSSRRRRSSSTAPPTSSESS
Sequence of intermediate conductance Ca^2+-activated K^+ channels (O15554 whole entry): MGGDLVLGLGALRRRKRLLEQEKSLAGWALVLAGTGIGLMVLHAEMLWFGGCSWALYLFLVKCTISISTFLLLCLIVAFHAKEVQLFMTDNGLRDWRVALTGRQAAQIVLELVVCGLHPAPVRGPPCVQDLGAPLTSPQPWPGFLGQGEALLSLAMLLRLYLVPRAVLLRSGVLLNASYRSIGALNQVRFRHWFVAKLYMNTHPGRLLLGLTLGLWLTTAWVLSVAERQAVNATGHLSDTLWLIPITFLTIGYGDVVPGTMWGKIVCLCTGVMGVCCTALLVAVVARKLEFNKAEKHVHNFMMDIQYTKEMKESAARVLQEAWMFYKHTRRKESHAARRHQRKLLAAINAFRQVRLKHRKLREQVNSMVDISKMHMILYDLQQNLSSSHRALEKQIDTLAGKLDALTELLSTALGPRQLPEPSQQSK

Consider `CCn1c(=O)[nH]c2ccccc21` [1-EBIO, 1-ethyl-2-benzimidazolinone], for which the “effect on intermediate conductance Ca2+-activated K+ channels” value in experiment [1] is given as “enhance activity”.

On to `O=c1[nH]c2cc(C(F)(F)F)ccc2n1-c1cc(C(F)(F)F)ccc1O` [NS1619], for which the “binding affinity of the inhibitors tested (rank order)” value in experiment [2] was “apamin>scyllatoxin>NS1619>quinidine>bicuculline”.

Take `C[N+]1(C)CCc2cc3c(cc2[C@H]1[C@@H]1OC(=O)c2c1ccc1c2OCO1)OCO3.[Br-]` [bicuculline methobromide]: in experiment [2], the “binding affinity of the inhibitors tested (rank order)” value is “apamin>scyllatoxin>NS1619>quinidine>bicuculline” and the “Hill coefficient (nH)” value worked out at 1.

Turning to `Nc1cc(N2CCCCC2)nc(N)[n+]1[O-]` [minoxidil], in experiment [3] (tested at 1.43 μM), the “effect on the fluorescence signals (responses to ATP/Tg and Cs+)” value (“effect on the fluorescence signals” below) is listed as “no effect”.

Take `CC(N/C(=N\C#N)Nc1ccncc1)C(C)(C)C` (centres unmarked) [pinacidil]: the “effect on the fluorescence signals” value in experiment [3] (tested at 286 μM) is recorded as “no effect”.

In the case of `C=C[C@H]1C[N@@]2CC[C@H]1C[C@@H]2[C@@H](O)c1ccnc2ccc(OC)cc12` [quinidine], in experiment [2], the “binding affinity of the inhibitors tested (rank order)” value is on record as “apamin>scyllatoxin>NS1619>quinidine>bicuculline” and the “Hill coefficient (nH)” value is on record as 0.6.

Take “iberiotoxin: inhibitor of the IK channel; isolated from Mesobuthus taniulus (QFTDVDCSVSKECWSVCKDLFGVDRGKCMGKKCRCYQ)”: in experiment [3] (tested at 833 nM), the “effect on the fluorescence signals” value is “no effect”.

Regarding “noxiustoxin: inhibitor of Ca2+- and voltage activated channels (TIINVKCTSPKQCSKPCKELYGSSAGAKCMNGKCKCYNN)”, the “effect on the fluorescence signals” value in experiment [3] (tested at 833 nM) is on record as “no effect”.

In the case of “α-dendrotoxin (QPRRKLCILHRNPGRCYDKIPAFYYNQKKKQCERFDWSGCGGNSNRFKTIEECRRTCIG)”, the “effect on the fluorescence signals” value in experiment [3] (tested at 833 nM) is reported as “no effect”.
